Several values for one entry are separate records, joined by “and”; a condition that tells them apart may be missing. Equal entries are not always repeated.

Assay [1] has as its system aortic valve stenosis (AVS). The experiment in a line: Echocardiography (aortic valve area, aortic valve thickness) in rabbit model of aortic valve stenosis. The format is in vivo, New-Zealand White rabbits. The note with it: for Aortic valve area (AVA): 25 mg/kg i.v. 3 times per week; for Aortic valve thickness: treated rabbits. An excerpt:
A complex animal model of aortic valve stenosis has been developed in rabbits.
An animal model adapted from that described by Drolet et al. (12) was used. Fifteen male New-Zealand White rabbits (2.7-3.0 kg, aged 12-13 weeks) were fed with a 0.5% cholesterol-enriched diet (Harlan, Indianapolis, Ind.) plus vitamin D2 (50000 UI per day; Sigma, Markham, Canada) in the drinking water until significant AVS, as defined by a decrease ≧10% of aortic valve area (AVA) or of the transvalvular velocities ratio (V1/V2), could be detected by echocardiography (12.9±2.4 weeks).
The animals then returned to a standard diet (without vitamin D2) to mimic cholesterol lowering and were randomly assigned to receive either saline (control group, n=8) or the ApoA-1 mimetic peptide (treated group, n=7). Rabbits were given injections through the marginal ear vein of saline or of the ApoA-1 mimetic peptide (25 mg/kg) complexed with phospholipids (Compound A), 3 times per week for 2 weeks. Echocardiograms were performed serially (see Echocardiography Methods) every 3 to 4 days throughout the randomized treatment period. Two days after their last infusion, the animals underwent a final echocardiogram and were sacrificed, and the aortic valves were harvested for histological analyses. Blood samples were obtained through the ear artery at baseline, prior to treatment and before sacrifice. Total cholesterol, HDL cholesterol, triglycerides and calcium levels were measured with an automated filter photometer system (Dimension RxL Max, Dade Behring, Ill.).
Transthoracic echocardiographic studies were performed at baseline, on a weekly basis starting at 8 weeks of hypercholesterolemic diet until significant AVS developed, and then after 4, 7, 10 and 14 days of ApoA-1 mimetic peptide or saline control treatments. Studies were carried out with an S12 probe using a standard echocardiographic system (Sonos 5500, Philips Medical Imaging, MA). Intra-muscular injections of ketamine (45 mg/kg) and midazolam (0.75 mg/kg) were used for sedation.
Parasternal long and short-axis views of the aortic valve were recorded to assess leaflet morphology. Left ventricular outflow tract (LVOT) diameter was measured in a zoomed parasternal long-axis view, and LVOT cross-sectional area (CSALVOT) was calculated according to: CSALVOT=π(DLVOT/2)^2. LVOT velocity (V1) and velocity time integral (VTILVOT) were obtained with pulsed-wave Doppler sampled proximal to the aortic valve in the apical 5-chamber view. Continuous wave (CW) Doppler interrogation across the aortic valve was used to obtain transvalvular maximal velocity (V2) and VTI (VTIAO) in the same view. V1/V2 ratio was calculated in the pre-treatment period to determine AVS development. Aortic valve area (AVA) was obtained at each time point by the continuity equation: AVA=CSALVOT×(VTILVOT/[…]). Aortic valve thickness in its middle portion was measured at end-diastole in a zoomed parasternal long-axis view at baseline, before randomized therapy, and at the final echocardiographic exam.
The average of three consecutive cardiac cycles was used for each measurement. Special care was taken to obtain similar imaging planes on serial examinations by reviewing previous recordings before follow-up study. All echocardiographic imaging and measurements were performed throughout the protocol by the same experienced investigator blinded to randomized treatment assignment.
Data are presented as mean±standard deviation. For the “pre-treatment” period, repeated measures analysis of variance (ANOVA) models were used to study the echocardiographic and serum measurements across time and between groups (treated vs. control groups). Models with time, group and group×time interaction as independent variables were used and comparisons between groups at a given time point were undertaken only in the presence of a significant group×time interaction. Otherwise, global conclusions were drawn based on the main group effects of the model. […]

Another assay deals with aortic valve lesions. The experiment in a line: Histomorphometry of aortic valves in rabbit model of aortic valve stenosis. The format is in vivo, New-Zealand White rabbits. Particulars: treated group; post mortem after 2 weeks of treatment. An excerpt:
An animal model adapted from that described by Drolet et al. (12) was used. Fifteen male New-Zealand White rabbits (2.7-3.0 kg, aged 12-13 weeks) were fed with a 0.5% cholesterol-enriched diet (Harlan, Indianapolis, Ind.) plus vitamin D2 (50000 UI per day; Sigma, Markham, Canada) in the drinking water until significant AVS, as defined by a decrease ≧10% of aortic valve area (AVA) or of the transvalvular velocities ratio (V1/V2), could be detected by echocardiography (12.9±2.4 weeks). The animals then returned to a standard diet (without vitamin D2) to mimic cholesterol lowering and were randomly assigned to receive either saline (control group, n=8) or the ApoA-1 mimetic peptide (treated group, n=7). Rabbits were given injections through the marginal ear vein of saline or of the ApoA-1 mimetic peptide (25 mg/kg) complexed with phospholipids (Compound A), 3 times per week for 2 weeks. Echocardiograms were performed serially (see Echocardiography Methods) every 3 to 4 days throughout the randomized treatment period. Two days after their last infusion, the animals underwent a final echocardiogram and were sacrificed, and the aortic valves were harvested for histological analyses. Blood samples were obtained through the ear artery at baseline, prior to treatment and before sacrifice. Total cholesterol, HDL cholesterol, triglycerides and calcium levels were measured with an automated filter photometer system (Dimension RxL Max, Dade Behring, Ill.). The ascending aorta and aortic valve were opened longitudinally and the 3 valvular cusps were separated. […] Stained or immunohistochemically labeled tissue sections obtained from the central third of each cusp were analyzed with a computer-based digitizing image system (Image Pro Plus, version 5.1) using a light microscope (BX41, Olympus) connected to a digital video camera (Qcolor3, Olympus). […] Lesion area (LA) and leaflet lesion length (LLL) were measured. […] Relationships between histomorphometry and echocardiographic variables were evaluated using Pearson correlation coefficient. […]

[2] abbreviates: treated group, after 7 days of treatment.
Setting [3] is: treated group, after 10 days of treatment.
Setting [4] is: treated group, after 14 days of treatment.

For the substance “H-Pro-Val-Leu-Asp-Leu-Phe-Arg-Glu-Leu-Leu-Asn-Glu-Leu-Leu-Glu-Ala-Leu-Lys-Gln-Lys-Leu-Lys-OH (H-PVLDLFRELLNELLEALKQKLK-OH; not fully specified) [ApoA-1 mimetic peptide, ApoA-1 mimetic peptide complexed with phospholipids, mimicking nascent HDL]”, in assay [1] (setting [2]), the “Aortic valve area (AVA)” value came to 21.9±3.6 mm^2; the “relative increase of AVA” value was 14.2±3.5% and 14.2%. Besides, in assay [1] (setting [3]), the “Aortic valve area (AVA)” value was found to be 23.0±4.1 mm^2; the “relative increase of AVA” value was 19.8±3.5% and 19.8%. For the same substance, in assay [1] (setting [4]), the “Aortic valve area (AVA)” value worked out at 23.8±3.1 mm^2; the “relative increase of AVA” value is 24.6±2.0% and 24% and 24.6%. In assay [1] (treated group, within 14 days of treatment), the “decrease of aortic valve thickness” value was 21%. The substance also returned an Aortic valve thickness in assay [1] (at end of treatment (14 days)) of 0.075±0.033 cm. The Aortic valve thickness in assay [1] (before randomization (pre-treatment value)) is reported as 0.094±0.034 cm. Besides, in the assay with aortic valve lesions, the “% LLL (percentage of total leaflet length occupied by lesion)” value came to 55.7±24.3%; the “Lesion extent at the base of valve leaflets and sinuses of Valsalva” value was found to be 52.8±12.5%; the “percentage of lesion area (LA) per region of analysis (ROA)” value is 52.8±12.5 %/ROA.

(Values after US8163699B2, “Method for the treatment of valvular disease” (Montreal Heart Institute, priority 2006, dated 2012).)
